Results as given in publication PMC12724200 (mSphere, 2025).

Each compound was assayed on M. bovis BCG.
Assay type: cell-based, Mycobacterium bovis BCG

Compound | Frequency of spontaneously generated drug-resistant colonies
CC[C@@H](CO)NCCN[C@@H](CC)CO [EB, ethambutol] | 4.5 × 10^−6
NNC(=O)c1ccncc1 [INH, isoniazid] | 2.0 × 10^−6
NC[C@H]1O[C@H](O[C@H]2[C@H](O)[C@@H](O[C@H]3O[C@H](CO)[C@@H](O)[C@H](N)[C@H]3O)[C@H](N)C[C@@H]2N)[C@H](O)[C@@H](O)[C@@H]1O [KM, kanamycin] | 6.3 × 10^−6
CO[C@H]1/C=C/O[C@@]2(C)Oc3c(C)c(O)c4c(O)c(c(/C=N/N5CCN(C)CC5)c(O)c4c3C2=O)NC(=O)/C(C)=C\C=C\[C@H](C)[C@H](O)[C@@H](C)[C@@H](O)[C@@H](C)[C@H](OC(C)=O)[C@@H]1C [RFP, rifampicin] | 5.2 × 10^−9
[H]/N=C(/N)N[C@H]1[C@H](O)[C@@H](O)[C@H](O[C@@H]2O[C@@H](C)[C@](O)(C=O)[C@H]2O[C@@H]2O[C@@H](CO)[C@H](O)[C@@H](O)[C@@H]2NC)[C@@H](N/C(N)=N\[H])[C@@H]1O [SM, streptomycin] | 3.1 × 10^−7
